Measured values from the supplement of paper PMC10307832.

Legend:
Assay in all cases: relative viability (nuclei count vs DMSO), 5 days (fraction); higher = more cells survive
BEN = system: BEN
Method in brief: (§1)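 Relative viability equals treated-well nuclei counts divided by vehicle-well nuclei counts. Counts came from 4× images of lung cancer cell lines grown in 1536-well plates for 5 days after pin-tool dosing on the day after seeding. Dosing used one drug alone or a fixed anchor-drug dose plus five library-drug doses (not always all listed) in √10 steps, and values are medians of duplicate plates.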

NCI-H1650 = system: NCI-H1650
Method in brief: as §1

NCI-H2085 = system: NCI-H2085
Method in brief: as §1

EKVX = system: EKVX
Method in brief: as §1

NCI-H1734 = system: NCI-H1734
Method in brief: as §1

NCI-H1395 = system: NCI-H1395
Method in brief: as §1

NCI-H1437 = system: NCI-H1437
Method in brief: as §1

HCC-44 = system: HCC-44
Method in brief: as §1

LCLC-103H = system: LCLC-103H
Method in brief: as §1

NCI-H2342 = system: NCI-H2342
Method in brief: as §1

NCI-H1651 = system: NCI-H1651
Method in brief: as §1

NCI-H2023 = system: NCI-H2023
Method in brief: as §1

COc1cc(N2CCC(C(N)=O)CC2)ccc1Nc1nc(N)c(Cl)c(Nc2ccccc2S(=O)(=O)C(C)C)n1 [HG-5-88-01] + Cc1cc(Nc2cc(N3CCN(C)CC3)nc(Sc3ccc(NC(=O)C4CC4)cc3)n2)n[nH]1 [Tozasertib] (partner 0.1 µM)
relative viability (BEN; first compound 0.4 µM): 0.509 | relative viability (BEN; first compound 1.265 µM): 0.484 | relative viability (BEN; first compound 4 µM): 0.531 | relative viability (NCI-H1650; first compound 0.04 µM): 0.428 | relative viability (NCI-H1650; first compound 0.1265 µM): 0.396 | relative viability (NCI-H1650; first compound 0.4 µM): 0.346 | relative viability (NCI-H1650; first compound 1.265 µM): 0.174 | relative viability (NCI-H1650; first compound 4 µM): 0.227 | relative viability (NCI-H2085; first compound 0.04 µM): 0.805 | relative viability (NCI-H2085; first compound 0.1265 µM): 0.784 | relative viability (NCI-H2085; first compound 0.4 µM): 0.776 | relative viability (NCI-H2085; first compound 1.265 µM): 0.696 | relative viability (NCI-H2085; first compound 4 µM): 0.391 | relative viability (EKVX; first compound 0.04 µM): 0.356 | relative viability (EKVX; first compound 0.1265 µM): 0.396 | relative viability (EKVX; first compound 0.4 µM): 0.374 | relative viability (EKVX; first compound 4 µM): 0.286 | relative viability (NCI-H1734; first compound 0.04 µM): 0.267 | relative viability (NCI-H1734; first compound 0.1265 µM): 0.235 | relative viability (NCI-H1734; first compound 0.4 µM): 0.225 | relative viability (NCI-H1734; first compound 1.265 µM): 0.243 | relative viability (NCI-H1734; first compound 4 µM): 0.27 | relative viability (NCI-H1395; first compound 0.04 µM): 0.79 | relative viability (NCI-H1395; first compound 0.1265 µM): 0.692 | relative viability (NCI-H1395; first compound 0.4 µM): 0.859 | relative viability (NCI-H1395; first compound 1.265 µM): 0.716 | relative viability (NCI-H1395; first compound 4 µM): 0.65 | relative viability (NCI-H1437; first compound 0.04 µM): 0.409 | relative viability (NCI-H1437; first compound 0.1265 µM): 0.398 | relative viability (NCI-H1437; first compound 0.4 µM): 0.356 | relative viability (NCI-H1437; first compound 1.265 µM): 0.301 | relative viability (NCI-H1437; first compound 4 µM): 0.316 | relative viability (HCC-44; first compound 0.04 µM): 1.1 | relative viability (HCC-44; first compound 0.1265 µM): 0.928 | relative viability (HCC-44; first compound 0.4 µM): 0.745 | relative viability (HCC-44; first compound 1.265 µM): 0.328 | relative viability (HCC-44; first compound 4 µM): 0.14 | relative viability (LCLC-103H; first compound 0.04 µM): 0.483 | relative viability (LCLC-103H; first compound 0.1265 µM): 0.511 | relative viability (LCLC-103H; first compound 0.4 µM): 0.386 | relative viability (LCLC-103H; first compound 1.265 µM): 0.611 | relative viability (LCLC-103H; first compound 4 µM): 0.345 | relative viability (NCI-H2342; first compound 0.04 µM): 0.563 | relative viability (NCI-H2342; first compound 0.1265 µM): 0.547 | relative viability (NCI-H2342; first compound 0.4 µM): 0.574 | relative viability (NCI-H2342; first compound 1.265 µM): 0.273 | relative viability (NCI-H2342; first compound 4 µM): 0.443 | relative viability (NCI-H1651; first compound 0.04 µM): 0.71 | relative viability (NCI-H1651; first compound 0.1265 µM): 0.745 | relative viability (NCI-H1651; first compound 0.4 µM): 0.7 | relative viability (NCI-H1651; first compound 1.265 µM): 0.388 | relative viability (NCI-H1651; first compound 4 µM): 0.455 | relative viability (NCI-H2023; first compound 0.04 µM): 0.35 | relative viability (NCI-H2023; first compound 0.1265 µM): 0.362 | relative viability (NCI-H2023; first compound 0.4 µM): 0.262 | relative viability (NCI-H2023; first compound 1.265 µM): 0.108 | relative viability (NCI-H2023; first compound 4 µM): 0.107
